Each structure is given as a SMILES string. Counter-ions that a name gives are not always drawn.

Test [1] has as its system HCT116 FOPFlash. Put plainly: Control reporter assay, HCT116 FOP control vector (non-functional TCF elements), luciferase expression. It is filed as cell-based. The following applies: HCT116 FOP control reporter cells, 36 hours incubation, dilution series 50 μM to 15 nM. The method, then:
In a parallel approach, HCT116 cells were cotransfected with the FOP control vector and pcDNA3. The FOP vector is identical to the TOP construct, but it contains instead of functional TCF elements a randomized, non-functional sequence. For this transfection a stable transfected cell line was generated as well.
(§1) In preparation of the assay, the two cell lines were plated 24 hours before at 10000 cells per well of a 384 micro titre plate (MTP) in 30 μL growth medium. Selective inhibitory activity for small molecules on the mutated Wnt pathway was determined after parallel incubation of both (TOP and FOP) HCT116 reporter cell lines with a compound dilution series from 50 μM to 15 nM in steps of 3.16-fold dilutions in CAFTY buffer (130 mM NaCl, 5 mM KCl, 20 mM HEPES, 1 mM MgCl2, 5 mM NaHCO3, pH 7.4) containing 2 mM Ca^2+ and 0.01% BSA. The compounds were thereby serially prediluted in 100% DMSO and thereafter in addition 50 fold into the CAFTY compound dilution buffer (described above). From this dilution 10 μL were added to the cells in 30 μL growth medium and incubated for 36 hours at 37° C. and 5% CO2. Thereafter luciferase assay buffer (1:1 mixture of luciferase substrate buffer (20 mM Tricine, 2.67 mM MgSO4, 0.1 mM EDTA, 4 mM DTT, 270 μM Coenzyme A, 470 μM Luciferin, 530 μM ATP, ph adjusted to pH 7.8 with a sufficient volume of 5M NaOH) and Triton buffer (30 mL Triton X-100, 115 mL glycerol, 308 mg Dithiothreitol, 4.45 g Na2HPO4.2H2O, 3.03 g TRIS HCl, ad 1 l H20, pH 7.8) was added as equal volume to the compound solution on the cells to determine luciferase expression as a measure of Wnt signaling activity in a luminometer.
In general terms: In a reporter assay the amount or activity of a reporter protein is the signal.

Test [2] relates to constitutive active colorectal cancer cell (CRC) Wnt pathway, HCT116 TOPFlash. The test can be described thus: Cellular reporter assay, HCT116 Super TopFlash (constitutive active Wnt pathway), luciferase expression. Conditions: HCT116 Super TopFlash reporter cells, 36 hours incubation, dilution series 50 μM to 15 nM. The test is classed as cell-based. On the procedure:
In order to discover and characterize small molecules which inhibit the constitutive active colorectal cancer cell (CRC) Wnt pathway, a cellular reporter assay was employed. The corresponding assay cell was generated by transfection of the colorectal cancer cell line HCT116 (ATCC, #CCL-247) with the Super TopFlash vector (Morin, Science 275, 1997, 1787-1790; Molenaar et al., Cell 86 (3), 1996, 391-399). The HCT116 cell line is cultivated at 37° C. and 5% CO2 in DMEM/F-12 (Life Technologies, #11320-074), supplemented with 2 mM glutamine, 20 mM HEPES, 1.4 mM pyruvate, 0.15% Na-bicarbonate and 10% foetal bovine serum (GIBCO, #10270), this cancer cell line is pathophysiological relevant since it carries a deletion of position S45 in the β-catenin gene, leading to constitutive active Wnt signaling. Stable transfectants were generated by cotransfection with pcDNA3 and selection of stable transfected cells with 1 mg/ml G418.
as §1

Take `CN1CCN(CC(=O)Nc2cc(C(=O)Nc3nnc(-c4cccnc4)s3)ccc2OC2CC2)CC1` [Example 34, 4-(cyclopropyloxy)-3-{[(4-methylpiperazin-1-yl)acetyl]amino}-N-[5-(pyridin-3-yl)-1,3,4-thiadiazol-2-yl]benzamide]: the IC50 came to 14000 nM in test [1] (Homo sapiens, HCT-116, 36 h) and 380 nM in test [2] (Homo sapiens, HCT-116, 36 h).

With `O=C(CN1CCOCC1)Nc1cc(C(=O)Nc2nnc(-c3cccnc3)s2)ccc1OC1CC1` [Example 35, 4-(cyclopropyloxy)-3-[(morpholin-4-ylacetyl)amino]-N-[5-(pyridin-3-yl)-1,3,4-thiadiazol-2-yl]benzamide], the IC50 is at least 50000 nM in test [1] (Homo sapiens, HCT-116, 36 h) and 278 nM in test [2] (Homo sapiens, HCT-116, 36 h).

`Cc1ccncc1-c1nnc(NC(=O)c2ccc(OC(F)(F)F)c(NC(=O)CN3CCN(C)CC3)c2)s1` [Example 36, 3-{[(4-methylpiperazin-1-yl)acetyl]amino}-N-[5-(4-methylpyridin-3-yl)-1,3,4-thiadiazol-2-yl]-4-(trifluoromethoxy)benzamide hydrochloride (1:1)]: the IC50 in test [1] (Homo sapiens, HCT-116, 36 h) was at least 50000 nM; in test [2], 60 nM.

On to `Cc1ccncc1-c1nnc(NC(=O)c2ccc(OC(F)(F)F)c(NC(=O)CN3CCN(C)CC3)c2)s1` [Example 37, 3-{[(4-methylpiperazin-1-yl)acetyl]amino}-N-[5-(4-methylpyridin-3-yl)-1,3,4-thiadiazol-2-yl]-4-(trifluoromethoxy)benzamide], for which the IC50 in test [1] is at least 50000 nM; in test [2] it was 610 nM.

For the molecule `CN1CCN(CC(=O)Nc2cc(C(=O)Nc3nnc(-c4ccc(N)nc4)s3)ccc2OC(F)(F)F)CC1` [Example 38, N-[5-(6-aminopyridin-3-yl)-1,3,4-thiadiazol-2-yl]-3-{[(4-methylpiperazin-1-yl)acetyl]amino}-4-(trifluoromethoxy)benzamide], the IC50 was at least 50000 nM in test [1] (Homo sapiens, HCT-116, 36 h) and 268 nM in test [2] (Homo sapiens, HCT-116, 36 h).

Turning to `Cc1cncc(-c2nnc(NC(=O)c3ccc(OC(F)(F)F)c(NC(=O)CN4CCN(C)CC4)c3)s2)c1` [Example 39, 1-methyl-4-(2-{[5-{[5-(5-methylpyridin-3-yl)-1,3,4-thiadiazol-2-yl]carbamoyl}-2-(trifluoromethoxy)phenyl]amino}-2-oxoethyl)piperazin-1-ium hexafluorophosphate], the IC50 in test [1] (Homo sapiens, HCT-116) was at least 50000 nM; in test [2] (Homo sapiens, HCT-116), 85.8 nM.

In the case of `CN1CCN(CC(=O)Nc2cc(C(=O)Nc3nnc(-c4cncc(Cl)c4)s3)ccc2OC(F)(F)F)CC1` [Example 40, formic acid-N-[5-(5-chloropyridin-3-yl)-1,3,4-thiadiazol-2-yl]-3-{[(4-methylpiperazin-1-yl)acetyl]amino}-4-(trifluoromethoxy)benzamide (1:1)], the IC50 in test [1] (Homo sapiens, HCT-116, 36 h) is at least 50000 nM; in test [2] (Homo sapiens, HCT-116, 36 h), 114 nM.

For the molecule `Cc1nccnc1-c1nnc(NC(=O)c2ccc(OC(F)(F)F)c(NC(=O)CN3CCN(C)CC3)c2)s1` [Example 41, 1-methyl-4-(2-{[5-{[5-(3-methylpyrazin-2-yl)-1,3,4-thiadiazol-2-yl]carbamoyl}-2-(trifluoromethoxy)phenyl]amino}-2-oxoethyl)piperazin-1-ium hexafluorophosphate], the IC50 in test [1] (Homo sapiens, HCT-116) is at least 50000 nM; in test [2] (Homo sapiens, HCT-116), 860 nM.

Take `Cc1cccnc1-c1nnc(NC(=O)c2ccc(OC(F)(F)F)c(NC(=O)CN3CCN(C)CC3)c2)s1` [Example 42, 1-methyl-4-(2-{[5-{[5-(3-methylpyridin-2-yl)-1,3,4-thiadiazol-2-yl]carbamoyl}-2-(trifluoromethoxy)phenyl]amino}-2-oxoethyl)piperazin-1-ium hexafluorophosphate]: the IC50 was determined as 38500 nM in test [1] (Homo sapiens, HCT-116) and 320 nM in test [2] (Homo sapiens, HCT-116).

For the molecule `CN1CCN(CC(=O)Nc2cc(C(=O)Nc3nnc(-c4ncccc4F)s3)ccc2OC(F)(F)F)CC1` [Example 43, 4-(2-{[5-{[5-(3-fluoropyridin-2-yl)-1,3,4-thiadiazol-2-yl]carbamoyl}-2-(trifluoromethoxy)phenyl]amino}-2-oxoethyl)-1-methylpiperazin-1-ium hexafluorophosphate], the IC50 in test [1] (Homo sapiens, HCT-116) amounted to 32000 nM; in test [2] (Homo sapiens, HCT-116), 2000 nM.

Consider `Cc1nc(-c2nnc(NC(=O)c3ccc(OC(F)(F)F)c(NC(=O)CN4CCN(C)CC4)c3)s2)cs1` [Example 44, 3-{[(4-methylpiperazin-1-yl)acetyl]amino}-N-[5-(2-methyl-1,3-thiazol-4-yl)-1,3,4-thiadiazol-2-yl]-4-(trifluoromethoxy)benzamide], for which the IC50 is at least 50000 nM in test [1] (Homo sapiens, HCT-116, 36 h) and 423 nM in test [2] (Homo sapiens, HCT-116, 36 h).

`CN1CCN(CC(=O)Nc2cc(C(=O)Nc3nnc(-c4nccs4)s3)ccc2OC(F)(F)F)CC1` [Example 45, 1-methyl-4-(2-oxo-2-{[5-{[5-(1,3-thiazol-2-yl)-1,3,4-thiadiazol-2-yl]carbamoyl}-2-(trifluoromethoxy)phenyl]amino}ethyl)piperazin-1-ium hexafluorophosphate]: the IC50 in test [1] (Homo sapiens, HCT-116) stood at 45000 nM; in test [2] (Homo sapiens, HCT-116), 1480 nM.

Consider `CN1CCN(CC(=O)Nc2cc(C(=O)Nc3ccc(-c4cncnc4)cn3)ccc2OC(F)(F)F)CC1` [Example 46, 3-{[(4-methylpiperazin-1-yl)acetyl]amino}-N-[5-(pyrimidin-5-yl)pyridin-2-yl]-4-(trifluoromethoxy)benzamide], for which the IC50 in test [1] (Homo sapiens, HCT-116, 36 h) was at least 50000 nM; in test [2] (Homo sapiens, HCT-116, 36 h) it was 18.3 nM.

On to `O=C(CN1CCOCC1)Nc1cc(C(=O)Nc2nnc(-c3cncc(Cl)c3)s2)ccc1OC(F)(F)F` [Example 47, N-[5-(5-chloropyridin-3-yl)-1,3,4-thiadiazol-2-yl]-3-[(morpholin-4-ylacetyl)amino]-4-(trifluoromethoxy)benzamide], for which the IC50 in test [1] (Homo sapiens, HCT-116, 36 h) was at least 50000 nM; in test [2] (Homo sapiens, HCT-116, 36 h), 585 nM.

For the molecule `Cc1cncc(-c2nnc(NC(=O)c3ccc(OC(F)(F)F)c(NC(=O)CN4CCOCC4)c3)s2)n1` [Example 48, N-[5-(6-methylpyrazin-2-yl)-1,3,4-thiadiazol-2-yl]-3-[(morpholin-4-ylacetyl)amino]-4-(trifluoromethoxy)benzamide], the IC50 in test [1] (Homo sapiens, HCT-116, 36 h) was at least 50000 nM; in test [2] (Homo sapiens, HCT-116, 36 h) it was 663 nM.

For the molecule `Nc1ccc(-c2nnc(NC(=O)c3ccc(OC(F)(F)F)c(NC(=O)C4(N5CCOCC5)CC4)c3)s2)cn1` [Example 49, N-[5-(6-aminopyridin-3-yl)-1,3,4-thiadiazol-2-yl]-3-({[1-(morpholin-4-yl)cyclopropyl]carbonyl}amino)-4-(trifluoromethoxy)benzamide], the IC50 in test [1] (Homo sapiens, HCT-116, 36 h) was at least 50000 nM; in test [2] (Homo sapiens, HCT-116, 36 h), 310 nM.

`CN1CCN(CC(=O)Nc2cc(C(=O)Nc3nnc(-c4cccnc4)s3)ccc2OCC(F)(F)F)CC1` [Example 50, 3-{[(4-methylpiperazin-1-yl)acetyl]amino}-N-[5-(pyridin-3-yl)-1,3,4-thiadiazol-2-yl]-4-(2,2,2-trifluoroethoxy)benzamide hydrochloride (1:1)]: the IC50 in test [1] (Homo sapiens, HCT-116, 36 h) is 20500 nM; in test [2] (Homo sapiens, HCT-116, 36 h), 293 nM.

For `CN1CCN(CC(=O)Nc2cc(C(=O)Nc3cnc(-c4cccnc4F)cn3)ccc2OC(F)(F)F)CC1` [Example 51], the IC50 in test [1] (Homo sapiens, HCT-116, 36 h) is at least 50000 nM; in test [2] (Homo sapiens, HCT-116, 36 h) it was 79 nM.

`CN1CCN(CC(=O)Nc2cc(C(=O)Nc3cnc(-c4ccncc4)cn3)ccc2OC(F)(F)F)CC1` [Example 52, 3-{[(4-methylpiperazin-1-yl)acetyl]amino}-N-[5-(pyridin-4-yl)pyrazin-2-yl]-4-(trifluoromethoxy)benzamide]: the IC50 in test [1] (Homo sapiens, HCT-116, 36 h) is at least 50000 nM; in test [2] (Homo sapiens, HCT-116, 36 h) it was 64 nM.

`CN1CCN(CC(=O)Nc2cc(C(=O)Nc3cnc(-c4ccnc(N)c4)cn3)ccc2OC(F)(F)F)CC1` [Example 53, N-[5-(2-aminopyridin-4-yl)pyrazin-2-yl]-3-{[(4-methylpiperazin-1-yl)acetyl]amino}-4-(trifluoromethoxy)benzamide]: the IC50 in test [1] (Homo sapiens, HCT-116, 36 h) is at least 50000 nM; in test [2] (Homo sapiens, HCT-116, 36 h), 2000 nM.

Broadly, the IC50 is the concentration at which inhibition is half-maximal. Read a high IC50 as weaker potency in that assay.

Values taken from patent US20170107212A1, “NOVEL COMPOUNDS” (Bayer Pharma Aktiengesellschaft, priority 2014, published 2017).
